≈ marks a conversion by molar mass, not a printed value. Structures can show the parent of a compound that is named as a salt.
Key:
[1] = target: T1, DNA gyrase (Escherichia coli, UniProt P0AES4+P0AES6); assay: Inhibition of DNA gyrase activity (DNA gyrase supercoiling assay, relaxed pUC18 plasmid as substrate); type: biochemical, E. coli H560
T1 construct: supercoiling of relaxed pUC18
Method: A. Inhibition of DNA gyrase activity
The inhibition of DNA gyrase activity was measured using a DNA gyrase supercoiling assay according to R. Otter & N. Cozzarelli: Methods in Enzymology, Vol. 100, pp 171-180 (1983). DNA gyrase was isolated from E. coli H560, and relaxed pUC18 plasmid was used as substrate. The activities as regards inhibition of DNA gyrase activity, expressed as maximum non-effective concentration of the test compound (MNC in μg/ml) are compiled in the following Table 1: […]

[2] = tested on: E. coli B; assay: Antibacterial activity in vitro (agar dilution); type: cell-based; conditions: Escherichia coli, agar dilution (MuellerHinton agar), inoculum 10^4 CFU/spot, read-out: minimum inhibitory concentration (MIC)
[3] = tested on: P. aeruginosa 799/61; assay: Antibacterial activity in vitro (agar dilution); type: cell-based; conditions: Pseudomonas aeruginosa, agar dilution (MuellerHinton agar), inoculum 10^4 CFU/spot, read-out: minimum inhibitory concentration (MIC)
[4] = tested on: S. aureus 25923; assay: Antibacterial activity in vitro (agar dilution); type: cell-based; conditions: Staphylococcus aureus, agar dilution (MuellerHinton agar), inoculum 10^4 CFU/spot, read-out: minimum inhibitory concentration (MIC)
[5] = tested on: S. aureus Smith; assay: Antibacterial activity in vitro (agar dilution); type: cell-based; conditions: Staphylococcus aureus, agar dilution (MuellerHinton agar), inoculum 10^4 CFU/spot, read-out: minimum inhibitory concentration (MIC)
[6] = tested on: S. epidermidis 16-2; assay: Antibacterial activity in vitro (agar dilution); type: cell-based; conditions: Staphylococcus epidermidis, 162, agar dilution (MuellerHinton agar), inoculum 10^4 CFU/spot, read-out: minimum inhibitory concentration (MIC)
[7] = tested on: S. pyogenes 15; assay: Antibacterial activity in vitro (agar dilution); type: cell-based; conditions: Streptococcus pyogenes, agar dilution (MuellerHinton agar), inoculum 10^4 CFU/spot, read-out: minimum inhibitory concentration (MIC)
[8] = tested on: S. faecalis 6; assay: Antibacterial activity in vitro (agar dilution); type: cell-based; conditions: Enterococcus faecalis, agar dilution (MuellerHinton agar), inoculum 10^4 CFU/spot, read-out: minimum inhibitory concentration (MIC)

T1 sequence (P0AES4 whole entry, one chain of several): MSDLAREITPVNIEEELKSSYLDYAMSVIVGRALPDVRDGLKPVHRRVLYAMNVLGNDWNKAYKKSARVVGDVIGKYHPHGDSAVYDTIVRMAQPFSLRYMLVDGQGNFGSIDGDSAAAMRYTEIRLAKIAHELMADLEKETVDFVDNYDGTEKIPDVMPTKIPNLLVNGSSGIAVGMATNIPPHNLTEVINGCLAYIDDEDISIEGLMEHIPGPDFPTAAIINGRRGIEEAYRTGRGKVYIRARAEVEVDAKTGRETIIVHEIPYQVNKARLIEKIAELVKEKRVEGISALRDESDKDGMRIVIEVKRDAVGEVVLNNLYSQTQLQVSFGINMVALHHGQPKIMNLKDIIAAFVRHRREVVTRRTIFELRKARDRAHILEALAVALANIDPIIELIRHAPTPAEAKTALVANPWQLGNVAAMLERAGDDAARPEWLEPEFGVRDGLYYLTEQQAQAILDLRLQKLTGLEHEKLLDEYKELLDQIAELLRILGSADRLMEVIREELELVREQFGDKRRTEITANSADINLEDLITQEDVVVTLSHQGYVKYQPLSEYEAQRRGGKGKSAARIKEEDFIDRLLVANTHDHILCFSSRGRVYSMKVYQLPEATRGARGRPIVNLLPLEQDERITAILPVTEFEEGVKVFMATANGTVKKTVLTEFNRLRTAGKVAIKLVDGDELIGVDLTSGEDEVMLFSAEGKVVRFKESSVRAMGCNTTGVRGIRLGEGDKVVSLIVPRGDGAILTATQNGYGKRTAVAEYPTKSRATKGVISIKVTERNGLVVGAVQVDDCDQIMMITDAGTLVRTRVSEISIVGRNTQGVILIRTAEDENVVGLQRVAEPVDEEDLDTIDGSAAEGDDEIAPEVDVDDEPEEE

Row | Structure (SMILES) | maximum non-effective concentration of the test compound (MNC) [1] [µg/mL] | MIC [2] [mg/L] | MIC [3] [mg/L] | MIC [4] [mg/L] | MIC [5] [mg/L] | MIC [6] [mg/L] | MIC [7] [mg/L] | MIC [8] [mg/L]
1 | COc1cc(O)c2c(c1C)C(=O)O[C@H](CO)CCC(=S)N[C@H](c1nc(C)no1)CSC2 [Example 16, (4R,9S)-15-hydroxy-9-hydroxymethyl-13-methoxy-12-methyl-4-(3-methyl-1,2,4-oxadiazol-5-yl)-6-thioxo-3,4,5,6,7,8,9,11-octahydro-1H-10,2,5-benzoxathiaazacyclotridecine-11-one] | 0.01 | – | – | – | – | – | – | –
2 | C#CCNC(=O)[C@@H]1CSCc2c(O)cc(OC)c(C)c2C(=O)OCCCCC(=S)N1 [Example 27, (R)-16-hydroxy-14-methoxy-13-methyl-12-oxo-6-thioxo-1,3,4,5,6,7,8,9,10,12-decahydro-11,2,5benzoxathiaazacyclotetradecine-4-carboxylic acid prop-2-ynylamide] | 0.01 | 64 (≈ 142 µM) | 2 (≈ 4.44 µM) | 1 (≈ 2.22 µM) | 0.5 (≈ 1.11 µM) | 0.12 (≈ 0.266 µM) | 4 (≈ 8.88 µM) | 0.5 (≈ 1.11 µM)
3 | COc1cc(O)c2c(c1C)C(=O)OCCCCC(=O)N[C@H](c1nc(C)no1)CSC2 [Example 33, (R)-16-hydroxy-14-methoxy-13-methyl-4-(3-methyl-1,2,4-oxadiazol-5-yl)-1,3,4,5,6,7,8,9,10,12-decahydro-11,2,5-benzoxathiaazacyclotetradecine-6,12-dione] | 0.01 | 32 (≈ 73.5 µM) | 4 (≈ 9.18 µM) | 0.5 (≈ 1.15 µM) | 0.25 (≈ 0.574 µM) | 0.25 (≈ 0.574 µM) | 1 (≈ 2.3 µM) | 0.5 (≈ 1.15 µM)
4 | COc1cc(O)c2c(c1C)C(=O)OCCCCC(=S)N[C@H](C(N)=O)CSC2 [Example 69, (R)-16-hydroxy-14-methoxy-13-methyl-12-oxo-6-thioxo-1,3,4,5,6,7,8,9,10,12-decahydro-11,2,5-benzoxathiaazacyclotetradecine-4-carboxylic acid amide] | 0.04 | > 64 | > 64 | 4 (≈ 9.7 µM) | 2 (≈ 4.85 µM) | 0.25 (≈ 0.606 µM) | 2 (≈ 4.85 µM) | 2 (≈ 4.85 µM)
5 | COC(=O)c1c(Br)c(OC)cc(O)c1CSC[C@H](Nc1nc(-c2ccc(C(=O)O)cc2)cs1)c1nc(C)no1 [Example 171] | – | > 64 | > 64 | 8 (≈ 12.6 µM) | 4 (≈ 6.29 µM) | 1 (≈ 1.57 µM) | 2 (≈ 3.15 µM) | 4 (≈ 6.29 µM)
6 | COC(=O)c1c(Cl)c(OC)cc(O)c1CSC[C@H](NC(C)=S)c1nc(C)no1 [Example 92, (R)-2-chloro-5-hydroxy-3-methoxy-6-[2-(3-methyl-1,2,4-oxadiazol-5-yl)-2-thioacetylamino-ethylsulfanylmethyl]-benzoic acid methyl ester] | 0.04 | > 64 | 64 (≈ 144 µM) | 4 (≈ 8.97 µM) | 2 (≈ 4.48 µM) | 1 (≈ 2.24 µM) | 8 (≈ 17.9 µM) | 8 (≈ 17.9 µM)
7 | COC(=O)[C@@H]1CSCc2c(O)cc(OC)c(C)c2C(=O)OCCCCC(=S)N1 [Example 23, (R)-16-hydroxy-14-methoxy-13-methyl-12-oxo-6-thioxo-1,3,4,5,6,7,8,9,10,12-decahydro-11,2,5-benzoxathiaazacyclotetradecine-4-carboxylic acid methyl ester] | 0.01 | 16 (≈ 37.4 µM) | 8 (≈ 18.7 µM) | 0.5 (≈ 1.17 µM) | 0.25 (≈ 0.585 µM) | 0.12 (≈ 0.281 µM) | 2 (≈ 4.68 µM) | 1 (≈ 2.34 µM)
8 | COC(=O)c1c(Br)c(OC)cc(O)c1CSC[C@H](NC(C)=S)c1nc(C)no1 [Example 71, (R)-2-bromo-5-hydroxy-3-methoxy-6-[2-(3-methyl-1,2,4-oxadiazol-5-yl)-2-thioacetylamino-ethylsulfanylmethyl]-benzoic acid methyl ester] | 0.5 | > 64 | 64 (≈ 131 µM) | 2 (≈ 4.08 µM) | 1 (≈ 2.04 µM) | 0.5 (≈ 1.02 µM) | 4 (≈ 8.16 µM) | 4 (≈ 8.16 µM)
9 | COc1cc(O)c(CSC[C@H](NC(C)=O)c2nc(C)no2)c(C#N)c1C [Example 97, (R)-N-[2-(2-cyano-6-hydroxy-4-methoxy-3-methyl-benzylsulfanyl]-1-(3-methyl-1,2,4-oxadiazol-5-yl)-ethyl]-acetamide] | 0.4 | 64 (≈ 170 µM) | 64 (≈ 170 µM) | 16 (≈ 42.5 µM) | 8 (≈ 21.3 µM) | 1 (≈ 2.66 µM) | 16 (≈ 42.5 µM) | 16 (≈ 42.5 µM)
10 | COc1cc(O)c2c(c1C)C(=O)OCCCCC(=O)N[C@H](c1nc(C)no1)C[S@@+]([O-])C2 [Example 111, (2S,4R)-16-hydroxy-14-methoxy-13-methyl-4-(3-methyl-1,2,4-oxadiazol-5-yl)-2-oxo-1,3,4,5,6,7,8,9,10,12-benzoxathiaazacyclotetradecin-6,12-dione] | 0.1 | – | – | – | – | – | – | –
11 | COc1cc(O)c2c(c1C)C(=O)OCCCCC(=O)N[C@H](c1nc(CNC(C)C)no1)CSC2 [Example 132, (R)-16-hydroxy-4-[3-(isopropylamino)-methyl-1,2,4-oxadiazol-5-yl]-14-methoxy-13-methyl-1,3,4,5,6,7,8,9,10,12-decahydro-11,2,5-benzoxathiaazacyclotetradecin-6,12-dione hydrochloride] | – | 64 | > 64 | 4 | 2 | 0.5 | 4 | 4
12 | COc1cc(O)c2c(c1C)C(=O)OCCCCC(=S)N[C@H](c1nc(CNC(C)=O)no1)CSC2 [Example 142, (R)-N-[5-(16-hydroxy-14-methoxy-13-methyl-12-oxo-6-thioxo-1,3,4,5,6,7,8,9,10,12-decahydro-11,2,5-benzoxathiaazacyclotetradecin-4-yl)-1,2,4-oxadiazol-3-ylmethyl]-acetamide] | – | 64 (≈ 126 µM) | > 64 | 2 (≈ 3.93 µM) | 1 (≈ 1.97 µM) | 0.12 (≈ 0.236 µM) | 1 (≈ 1.97 µM) | 1 (≈ 1.97 µM)
13 | COC(=O)[C@@H]1CSCc2c(O)cc(OC)c(C)c2C(=O)O[C@H](COC(C)=O)CCC(=S)N1 [Example 11, (4R,9S)-9-acetoxymethyl-15-hydroxy-13-methoxy-12-methyl-11-oxo-6-thioxo-3,4,5,6,7,8,9,11-octahydro-1H-10,2,5-benzoxathiaazacyclotridecine-4-carboxylic acid methyl ester] | 0.02 | > 64 | 8 (≈ 16.5 µM) | 0.5 (≈ 1.03 µM) | 0.5 (≈ 1.03 µM) | 0.12 (≈ 0.247 µM) | 2 (≈ 4.12 µM) | 2 (≈ 4.12 µM)
14 | CCCNC(=O)[C@@H]1CSCc2c(O)cc(OC)c(C)c2C(=O)OCCCCC(=S)N1 [Example 26, (R)-16-hydroxy-14-methoxy-13-methyl-12-oxo-6-thioxo-1,3,4,5,6,7,8,9,10,12-decahydro-11,2,5-benzoxathiaazacyclotetradecine-4-carboxylic acid propylamide] | 0.04 | > 64 | 32 (≈ 70.4 µM) | 2 (≈ 4.4 µM) | 0.5 (≈ 1.1 µM) | 0.12 (≈ 0.264 µM) | 4 (≈ 8.8 µM) | 2 (≈ 4.4 µM)
15 | COC(=O)[C@@H]1CSCc2c(O)cc(OC)c(C)c2C(=O)OC[C@H](O)CCC(=S)N1 [Example 32, (4R,9R)-9,16-dihydroxy-14-methoxy-13-methyl-12-oxo-6-thioxo-1,3,4,5,6,7,8,9,10,12-decahydro-11,2,5-benzoxathiaazacyclotetradecine-4-carboxylic acid methyl ester] | 0.01 | > 64 | 4 (≈ 9.02 µM) | 1 (≈ 2.25 µM) | 0.5 (≈ 1.13 µM) | 0.25 (≈ 0.564 µM) | 2 (≈ 4.51 µM) | 2 (≈ 4.51 µM)
16 | COc1cc(O)c2c(c1C)C(=O)OCCCCC(=S)N[C@H](c1nc(CN)no1)CSC2.Cl [Example 130, (R)-4-(3-aminomethyl-1,2,4-oxadiazol-5-yl)-16-hydroxy-14-methoxy-13-methyl-6-thioxo-1,3,4,5,6,7,8,9,10,12-decahydro-11,2,5-benzoxathiaazacyclotetradecin-12-one hydrochloride] | – | 32 | 64 | 0.5 | 0.25 | 0.12 | 0.5 | 0.5
17 | COC(=O)c1c(C)c(OC)cc(O)c1CSC[C@H](Nc1nc(-c2ccccc2)ns1)c1nc(C)no1 [Example 175, (R)-3-hydroxy-5-methoxy-6-methyl-2-[2-(3-methyl-1,2,4-oxadiazol-5-yl)-2-(3-phenyl-1,2,4-thiadiazol-5-ylamino)-ethylsulfanylmethyl]-benzoic acid methyl ester] | – | > 64 | > 64 | 4 (≈ 7.58 µM) | 1 (≈ 1.9 µM) | 1 (≈ 1.9 µM) | 4 (≈ 7.58 µM) | 4 (≈ 7.58 µM)
